“Also recorded” adds a separate entry of the source.
Tests used:
[1] = test system: ID8 tumor bearing mice; assay: Survival of ID8 tumor bearing mice (AMD3100/checkpoint inhibitor combination study); format: in vivo, C57BL/6 mice; conditions: vs saline treated control; AMD3100 3 mg/kg IP every other day for three weeks alternating with αPD-1 or αPD-L1 200 μg/mouse IP; Log-rank test
Description: Luciferase-expressing ID-8 ovarian cancer cells (3×10^6 cells) were injected into C57BL/6 female mice (30/group). […] Starting three weeks post tumor inoculation, AMD3100 (3 mg/kg) was injected IP every other day for three weeks alternating with αPD-1 or αPD-L1 (200 μg/mouse) by IP injection.
Tissue Culture: The ID8 ovarian cancer cells, a kind gift from Kathy Roby (University of Kansas Medical Center, Kansas City, Kans.), were transfected with luciferase lentiviral vector and a clone stably expressing luciferase was recovered, here named Luc-ID8. Cells were maintained at 37° C. in DMEM with 2 mmol/L L-glutamine, 10 units/ml penicillin, 10 μg/ml streptomycin, and 10% fetal bovine serum in a humidified atmosphere with 5% CO2. Cells were cultured until 80% confluent, then harvested with Trypsin EDTA (Mediatech) for animal injections.
Treatment Agents: AMD3100 was purchased from Abcam. 10 mg power was dissolved in 16.7 ml saline to achieve concentration of 0.6 mg/ml and 100 μl was injected for each treatment. Anti-mouse PD-1 and anti-mouse PD-L1 were purchased from Biocell. […]

[2] = test system: tumor-infiltrated lymphocytes; assay: Flow cytometry immune profiling of tumor-infiltrating lymphocytes from ID8 tumors a week after the last treatment; format: in vivo, C57BL/6 mice; conditions: vs saline control
Description: Luciferase-expressing ID-8 ovarian cancer cells (3×10^6 cells) were injected into C57BL/6 female mice (30/group). Tumor initiation was confirmed 20 days later by IVIS imaging, and tumor-bearing animals were randomized into the treatment groups indicated in Table 2. Starting three weeks post tumor inoculation, AMD3100 (3 mg/kg) was injected IP every other day for three weeks alternating with αPD-1 or αPD-L1 (200 μg/mouse) by IP injection. 3 mg/kg AMD3100 is the murine equivalent of the approved human dose of 0.24 mg/kg based on allometric scaling.
Some animals from each treatment group were euthanized by i.p. administration of Ketamine (9 mg/ml in saline) and Xylazine (0.9 mg/ml in saline) a week after the last treatment for evaluation of tumor-infiltrating lymphocytes. Tumors were harvested and processed for immune profiling.
Flow cytometry: Tumors were mechanically disaggregated using razor blades, and cells were further separated by incubation at 37° C. for 2 hours in RPMI 1640 with collagenase type IV (2 mg/ml, Sigma), hyaluronidase (0.1 mg/ml, Sigma), and BSA (2 mg/ml, Sigma). Cell suspensions were passed through 100 μm filters to remove any remaining aggregates. Cells were washed with staining buffer (Biolegend) and stained with conjugated antibodies. All live cells were determined by the LIVE/DEAD® staining (ThermoFisher). Intracellular protein detection was realized by fixation/permeabilization reagents from BioLegend or eBioscience. Flow cytometry were performed using BD LSRFortessa X-20 (BD Biosciences) and data were analyzed by FlowJo V10.
Assessment of Results: Prism 6.0 software (GraphPad Software) was used for all statistical analyses. Statistical differences between three or more experimental groups were analyzed using Two-Way ANOVA, followed by Tukey's multiple comparison tests or Student T tests. Survival was analyzed with the Log-rank test.

[3] = test system: intratumoral FoxP3+ regulatory T cells (Treg); conditions: literature statement; cited from earlier work
[4] = percentage of total CD8+ T cells in tumors

c1cc(CN2CCCNCCNCCCNCC2)ccc1CN1CCCNCCNCCCNCC1 [AMD3100, AMD3100 (plerixafor)]
survival time of ID8 tumor bearing mice [1]: significantly extended | proportions of CD40L+IL-2+ cells in CD4+FoxP3+CD25− population (helper-like T cells) ([2]; in tumors): significantly increased; also recorded: promoted replacement of Tregs by helper T cells | proportions of intratumor Tregs ([2]; percent of total CD4+ T cells in tumors): significantly reduced; also recorded: decreased | IFN-γ expression in intratumor CD8+ T cells [2, 4]: significantly increased; also recorded: enhanced | intratumor CD8+ memory T cells (CD27+CD44+ population in TILs) [2, 4]: significantly increased | levels of intratumoral FoxP3+ regulatory T cells (Treg) [3]: can be reduced

Reference: patent publication US20200093789A1, “Cancer Treatment with a CXCL12 Signaling Inhibitor and an Immune Checkpoint Inhibitor” (The General Hospital Corporation, priority 2017, published 2020)
